MIC data for ten molecules are collected here from US11713335B2, “Aminocoumarin compounds and methods of their use” (President and Fellows of Harvard College, priority 2018, dated 2023).

Values after ≈ are worked out from the molar mass of the structure shown. Counter-ions that a name gives are not always drawn. Like-named read-outs stand apart in the source and are kept apart here.

Experiment [1] relates to WT E. coli. The experiment can be described thus: Minimal inhibitory concentration in wild-type E. coli. Type of experiment: cell-based, Escherichia coli. As to conditions: wild-type E. coli, 37° C., 16 hours, read-out: MIC (μM) in WT E. coli. Here is the method:
General Procedure for Determination of Minimal Inhibitory Concentrations
Overnight cultures (5 mL) of bacterial strains were grown in LB media or TSA media (for S. aureus) at 37° C. and with shaking at 220 rpm until saturation. The overnight culture was diluted serially 1:100 (50 μL in 5 mL sterile media) and then 1:100 (250 μL in 25 mL sterile media). The 25 mL of diluted culture was then dispensed to a sterile 96 well plate (Corning #3370). 198 μL of culture were dispensed into row A and 100 μL of this culture were dispensed into rows B-H. Aminocoumarin compound (DMSO stock) were added to the first row and then the row was mixed by pipetting. 100 μL of culture from row A were transferred to row B and the serial dilution continued until the final 100 μL from row H were discarded. The plate was incubated without shaking in a 37° C. for 16 hours and then read by visible light spectrophotometer (Molecular Devices) at 600 nm. The minimal inhibitory concentration (MIC) was determined as the lowest concentration of compound concentration that inhibited the growth of bacteria.

The test system of experiment [2] is E. cloacae 13047. In words: Minimal inhibitory concentration, E. cloacae 13047. Type of experiment: cell-based. Particulars: Enterobacter cloacae, 13047; 16 hour minimal inhibitory concentration at 37° C.; read-out: MIC (μM) E. cloacae 13047. An outline of the steps: (§1)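 Saturated overnight cultures in LB (TSA for S. aureus), grown at 37 °C with shaking, were diluted 1:100 twice and exposed to twofold serial dilutions of compound from DMSO stock. After 16 h static incubation at 37 °C, OD600 was read; MIC is the lowest concentration inhibiting growth, reported in µM.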

Experiment [3] relates to S. aureus MW2. The experiment can be described thus: Minimal inhibitory concentration, S. aureus MW2. It is filed as cell-based. As to conditions: Staphylococcus aureus, MRSA, 16 h, 16 hour minimal inhibitory concentration at 37° C.; read-out: MIC (μM) S. aureus MW2 (MRSA). An outline of the steps: as §1
Experiment [4] concerns A. baumannii 19606. The experiment can be described thus: Minimal inhibitory concentration, A. baumannii 19606. It is filed as cell-based. Particulars: Acinetobacter baumannii, 19606, 16 h, 16 hour minimal inhibitory concentration at 37° C.; read-out: MIC (μM) A. baumannii 19606. An outline of the steps: as §1
Experiment [5] concerns S. aureus RN4220. In words: Minimal inhibitory concentration, S. aureus RN4220. Type of experiment: cell-based. As to conditions: Staphylococcus aureus, RN4220, 16 h, 16 hour minimal inhibitory concentration at 37° C.; read-out: MIC (μM) S. aureus RN4220. An outline of the steps:
as §1

Experiment [6] has as its system E. coli 25922. The experiment can be described thus: Minimal inhibitory concentration, E. coli 25922. Type of experiment: cell-based. As to conditions: Escherichia coli, 25922, 16 h, 16 hour minimal inhibitory concentration at 37° C.; read-out: MIC (μM) E. coli 25922. An outline of the steps:
as §1

The subject of experiment [7] is K. pneumoniae 700721. In words: Minimal inhibitory concentration, K. pneumoniae 700721. It is filed as cell-based. Particulars: Klebsiella pneumoniae, 700721; 16 hour minimal inhibitory concentration at 37° C.; read-out: MIC (μM) K. pneumoniae 700721. A digest of the protocol:
as §1

In experiment [8] the test system is E. coli MC4100. In words: Minimal inhibitory concentration, E. coli MC4100. Type of experiment: cell-based. Particulars: Escherichia coli, MC4100, 16 h, 16 hour minimal inhibitory concentration at 37° C.; read-out: MIC (μM) E. coli MC4100 ara+. A digest of the protocol: as §1

In general, MIC refers to the lowest concentration that inhibits growth of the organism. `CO[C@@H]1[C@@H](OC(N)=O)[C@@H](O)[C@H](Oc2ccc3c(O)c(NC(=O)c4cccc(-c5cn[nH]c5)c4)c(=O)oc3c2C)OC1(C)C` [Compound 18]: the MIC in experiment [1] was >300 µM.
For `COC1[C@H](OC(N)=O)C(O)[C@H](Oc2ccc3c(O)c(N)c(=O)oc3c2C)OC1(C)C` (stereo partly shown) [Compound 19, novenamine hydrochloride], the MIC in experiment [1] (Escherichia coli) is > 300 µM.
Same read-out and setting: the same measure for `CO[C@@H]1[C@H](OC(N)=O)C(O)[C@H](Oc2ccc3c(O)c(NS(=O)(=O)c4cccc(-c5ccccc5)c4)c(=O)oc3c2C)OC1(C)C` (stereo partly shown) [Compound 36]: > 300 µM.
On to `CO[C@@H]1[C@@H](OC(N)=O)[C@@H](O)[C@H](Oc2ccc3c(O)c(NC(=O)c4ccc(O)c(C/C=C/CC(=O)O)c4)c(=O)oc3c2C)OC1(C)C` [Compound 80], for which the MIC in experiment [1] is given as >300 µM.
Turning to `CO[C@@H]1[C@@H](OC(N)=O)[C@@H](O)[C@H](Oc2ccc3c(O)c(NC(=O)c4ccc([N+](=O)[O-])c(Oc5ccccc5)c4)c(=O)oc3c2C)OC1(C)C` [Compound 253], the minimum inhibitory concentration (MIC) in experiment [2] was > 100 µM; in experiment [3], 38 µM (≈ 25.3 µg/mL); in experiment [4], > 50 µM; in experiment [5] it was 38 µM (≈ 25.3 µg/mL); in experiment [6] it was 75 µM (≈ 49.9 µg/mL); in experiment [7], > 100 µM. Moreover, the MIC in experiment [8] was 75 µM (≈ 49.9 µg/mL).
Take `CO[C@@H]1[C@@H](OC(N)=O)[C@@H](O)[C@H](Oc2ccc3c(O)c(NC(=O)c4ccc(F)c(Oc5ccccc5)c4)c(=O)oc3c2C)OC1(C)C` [Compound 254]: the MIC in experiment [2] was 79 µM (≈ 50.4 µg/mL); in experiment [3], 10 µM (≈ 6.39 µg/mL); in experiment [4], > 50 µM; in experiment [5] it was 10 µM (≈ 6.39 µg/mL); in experiment [6] it was 5 µM (≈ 3.19 µg/mL); in experiment [7] it was 20 µM (≈ 12.8 µg/mL). In addition, the minimum inhibitory concentration (MIC) in experiment [8] came out at 2.4 µM (≈ 1.53 µg/mL).
For the molecule `CO[C@@H]1[C@@H](OC(N)=O)[C@@H](O)[C@H](Oc2ccc3c(O)c(NC(=O)c4ccc(C)c(Oc5ccccc5)c4)c(=O)oc3c2C)OC1(C)C` [Compound 255], the MIC in experiment [2] is 77 µM (≈ 48.9 µg/mL); in experiment [3], 5 µM (≈ 3.17 µg/mL); in experiment [4], > 50 µM; in experiment [5], 5 µM (≈ 3.17 µg/mL); in experiment [6], 5 µM (≈ 3.17 µg/mL); in experiment [7] it was 10 µM (≈ 6.35 µg/mL). Moreover, in experiment [8], the MIC amounted to 2.4 µM (≈ 1.52 µg/mL).
As for `COc1ccc(C(=O)Nc2c(O)c3ccc(O[C@@H]4OC(C)(C)[C@H](OC)[C@@H](OC(N)=O)[C@H]4O)c(C)c3oc2=O)cc1Oc1ccccc1` [Compound 256], the MIC in experiment [2] was > 100 µM; in experiment [3], 19 µM (≈ 12.4 µg/mL); in experiment [4], > 50 µM; in experiment [5], 19 µM (≈ 12.4 µg/mL); in experiment [6] it was 10 µM (≈ 6.51 µg/mL); in experiment [7] it was 19 µM (≈ 12.4 µg/mL). Besides, the MIC in experiment [8] turned out to be 10 µM (≈ 6.51 µg/mL).
As for `C#Cc1ccc(C(=O)Nc2c(O)c3ccc(O[C@@H]4OC(C)(C)[C@H](OC)[C@@H](OC(N)=O)[C@H]4O)c(C)c3oc2=O)cc1Oc1ccccc1` [Compound 257], the minimum inhibitory concentration (MIC) in experiment [2] was > 100 µM; in experiment [3], 5 µM (≈ 3.22 µg/mL); in experiment [4], > 50 µM; in experiment [5], 5 µM (≈ 3.22 µg/mL); in experiment [6] it was 19 µM (≈ 12.2 µg/mL); in experiment [7] it was 71 µM (≈ 45.8 µg/mL). In addition, the MIC in experiment [8] worked out at 39 µM (≈ 25.1 µg/mL).
For the molecule `CO[C@@H]1[C@@H](OC(N)=O)[C@@H](O)[C@H](Oc2ccc3c(O)c(NC(=O)c4ccc(Br)c(Oc5ccccc5)c4)c(=O)oc3c2C)OC1(C)C` [Compound 258], the minimum inhibitory concentration (MIC) in experiment [2] is > 100 µM; in experiment [3], 4.5 µM (≈ 3.15 µg/mL); in experiment [4] it was > 50 µM; in experiment [5], 5 µM (≈ 3.5 µg/mL); in experiment [6] it was 18 µM (≈ 12.6 µg/mL); in experiment [7] it was 20 µM (≈ 14 µg/mL). Further, the MIC in experiment [8] was found to be 4.5 µM (≈ 3.15 µg/mL).
